Data from ChEMBL document CHEMBL6083262, “Stereorandomized Oncocins with Preserved Ribosome Binding and Antibacterial Activity” (J Med Chem, 2024).
Calls of active or inactive are those of the source. The calls are words filed in the database; no cut-off is given here. Positions of bridges follow the written chain, without caps; N, C: chain ends. Non-standard residues stand in square brackets, D forms with d. Residues, ends and D or L forms follow the SMILES beside them. *: point of attachment. X1 = CC[C@H](C)CCCCC(=O)*; Dab = NCC[C@H](N)C(=O)O

What was measured:
[1] = tested on: Lipid bilayer; test: Induction of membrane disruption in egg yolk phosphatidyl glycerol at 10 ug/ml by measuring vesicle leakage; conditions: dose 10.0 µg/ml
[2] = tested on: Pseudomonas aeruginosa; test: Antibacterial activity against multidrug-resistant Pseudomonas aeruginosa clinical isolate ZEM9A incubated for 16 to 20 hrs in full muller hinton medium by broth microdilution method; type: functional; conditions: time 16-20 hrs
[3] = tested on: Pseudomonas aeruginosa; test: Antibacterial activity against multidrug-resistant Pseudomonas aeruginosa PA14 4.18 harboring pmrB mutant incubated for 16 to 20 hrs in full muller hinton medium by broth microdilution method; type: functional; conditions: time 16-20 hrs
[4] = tested on: Lipid bilayer; test: Induction of membrane disruption in egg yolk phosphatidyl choline at 10 ug/ml by measuring vesicle leakage; conditions: dose 10.0 µg/ml
[5] = tested on: Staphylococcus aureus; test: Antimicrobial activity against methicillin-resistant Staphylococcus aureus COL incubated for 16 to 20 hrs in full muller hinton medium by broth microdilution method; type: functional; conditions: time 16-20 hrs
[6] = tested on: Klebsiella pneumoniae; test: Antibacterial activity against multidrug-resistant Klebsiella pneumoniae clinical isolate OXA-48 incubated for 16 to 20 hrs in 12.5 % muller hinton medium by broth microdilution method; type: functional; conditions: time 16-20 hrs
[7] = tested on: Pseudomonas aeruginosa; test: Antibacterial activity against multidrug-resistant Pseudomonas aeruginosa PA14 2P4 harboring pmrB mutant incubated for 16 to 20 hrs in full muller hinton medium by broth microdilution method; type: functional; conditions: time 16-20 hrs
[8] = tested on: Pseudomonas aeruginosa; test: Antibacterial activity against multidrug-resistant Pseudomonas aeruginosa clinical isolate ZEM-1A incubated for 16 to 20 hrs in full muller hinton medium by broth microdilution method; type: functional; conditions: time 16-20 hrs
[9] = Hemolytic activity in human RBC incubated for 4 hrs; type: toxicity, cell-based; conditions: erythrocyte
[10] = tested on: rRNA; test: Binding affinity to [gamma32 P-ATP] labeled Escherichia coli MG1655 23S ribosomal RNA (5-CCCTTGGGACCTACTTC-3') at U2506 position assessed as increase in band intensity at 1 uM incubated for 2.5 hrs in full muller hinton medium by CMCT based gel electrophoresis; type: nucleic-acid assay
[11] = tested on: Staphylococcus aureus; test: Antimicrobial activity against methicillin-resistant Staphylococcus aureus COL incubated for 16 to 20 hrs in 12.5 % muller hinton medium by broth microdilution method; type: functional; conditions: time 16-20 hrs
[12] = tested on: Pseudomonas aeruginosa; test: Antibacterial activity against multidrug-resistant Pseudomonas aeruginosa PA14 4.13 harboring phoQ mutant incubated for 16 to 20 hrs in full muller hinton medium by broth microdilution method; type: functional; conditions: time 16-20 hrs
[13] = tested on: Pseudomonas aeruginosa; test: Antibacterial activity against multidrug-resistant Pseudomonas aeruginosa PA14 incubated for 16 to 20 hrs in full muller hinton medium by broth microdilution method; type: functional; conditions: time 16-20 hrs
[14] = tested on: Klebsiella pneumoniae; test: Antimicrobial activity against Klebsiella pneumoniae NCTC 418 incubated for 16 to 20 hrs in 12.5 % muller hinton medium by broth microdilution method; type: functional; conditions: time 16-20 hrs
[15] = tested on: Klebsiella pneumoniae; test: Antibacterial activity against multidrug-resistant Klebsiella pneumoniae clinical isolate OXA-48 incubated for 16 to 20 hrs in full muller hinton medium by broth microdilution method; type: functional; conditions: time 16-20 hrs
[16] = tested on: Enterobacter cloacae; test: Antibacterial activity against multidrug-resistant Enterobacter cloacae incubated for 16 to 20 hrs in full muller hinton medium by broth microdilution method; type: functional; conditions: time 16-20 hrs
[17] = tested on: Pseudomonas aeruginosa; test: Antimicrobial activity against Pseudomonas aeruginosa PAO1 incubated for 16 to 20 hrs in full muller hinton medium by broth microdilution method; type: functional; conditions: time 16-20 hrs
[18] = tested on: Klebsiella pneumoniae; test: Antimicrobial activity against Klebsiella pneumoniae NCTC 418 incubated for 16 to 20 hrs in full muller hinton medium by broth microdilution method; type: functional; conditions: time 16-20 hrs
[19] = tested on: Bacteria; test: Binding affinity to his-tagged DnaK (unknown origin) expressed in Escherichia coli BL21 (DE3) in dilute muller hinton medium by microscale thermophoresis analysis
[20] = tested on: Pseudomonas aeruginosa; test: Antibacterial activity against multidrug-resistant Pseudomonas aeruginosa PA14 4.13 harboring phoQ mutant incubated for 16 to 20 hrs in 12.5 % muller hinton medium by broth microdilution method; type: functional; conditions: time 16-20 hrs
[21] = tested on: Acinetobacter baumannii; test: Antimicrobial activity against Acinetobacter baumannii ATCC 19606 incubated for 16 to 20 hrs in 12.5 % muller hinton medium by broth microdilution method; type: functional; conditions: time 16-20 hrs
[22] = tested on: Pseudomonas aeruginosa; test: Antibacterial activity against multidrug-resistant Pseudomonas aeruginosa clinical isolate ZEM9A incubated for 16 to 20 hrs in 12.5 % muller hinton medium by broth microdilution method; type: functional; conditions: time 16-20 hrs
[23] = tested on: Acinetobacter baumannii; test: Antimicrobial activity against Acinetobacter baumannii ATCC 19606 incubated for 16 to 20 hrs in full muller hinton medium by broth microdilution method; type: functional; conditions: time 16-20 hrs
[24] = tested on: Pseudomonas aeruginosa; test: Antibacterial activity against multidrug-resistant Pseudomonas aeruginosa PA14 4.18 harboring pmrB mutant incubated for 16 to 20 hrs in 12.5 % muller hinton medium by broth microdilution method; type: functional; conditions: time 16-20 hrs
[25] = tested on: Pseudomonas aeruginosa; test: Antibacterial activity against multidrug-resistant Pseudomonas aeruginosa PA14 incubated for 16 to 20 hrs in 12.5 % muller hinton medium by broth microdilution method; type: functional; conditions: time 16-20 hrs
[26] = tested on: Pseudomonas aeruginosa; test: Antimicrobial activity against Pseudomonas aeruginosa PAO1 incubated for 16 to 20 hrs in 12.5 % muller hinton medium by broth microdilution method; type: functional; conditions: time 16-20 hrs
[27] = tested on: Pseudomonas aeruginosa; test: Antibacterial activity against multidrug-resistant Pseudomonas aeruginosa clinical isolate ZEM-1A incubated for 16 to 20 hrs in 12.5 % muller hinton medium by broth microdilution method; type: functional; conditions: time 16-20 hrs
[28] = tested on: Escherichia coli; test: Antimicrobial activity against Escherichia coli W3110 incubated for 16 to 20 hrs in full muller hinton medium by broth microdilution method; type: functional; conditions: time 16-20 hrs
[29] = tested on: Pseudomonas aeruginosa; test: Antibacterial activity against multidrug-resistant Pseudomonas aeruginosa PA14 2P4 harboring pmrB mutant incubated for 16 to 20 hrs in 12.5 % muller hinton medium by broth microdilution method; type: functional; conditions: time 16-20 hrs
[30] = tested on: Enterobacter cloacae; test: Antibacterial activity against multidrug-resistant Enterobacter cloacae incubated for 16 to 20 hrs in 12.5 % muller hinton medium by broth microdilution method; type: functional; conditions: time 16-20 hrs
[31] = tested on: Escherichia coli; test: Antimicrobial activity against Escherichia coli W3110 incubated for 16 to 20 hrs in 12.5 % muller hinton medium by broth microdilution method; type: functional; conditions: time 16-20 hrs

SMILES: CCC(C)C(NC(=O)C(CCCNC(=N)N)NC(=O)C(CCCNC(=N)N)NC(=O)C1CCCN1C(=O)C1CCCN1C(=O)C(CCCNC(=N)N)NC(=O)C1CCCN1C(=O)C(CCCNC(=N)N)NC(=O)C1CCCN1C(=O)C(CC(C)C)NC(=O)C(Cc1ccc(O)cc1)NC(=O)C1CCCN1C(=O)C1CCCN1C(=O)C(CCCCN)NC(=O)C(CC(=O)O)NC(=O)C(N)C(C)C)C(=O)NC(Cc1ccc(O)cc1)C(=O)NC(CC(N)=O)C(=O)NC(CCCNC(=N)N)C(N)=O (configuration not stated) (H-VDKPPYLPRPRPPRRIYNR-NH2; configuration not given here)
- Activity [1]: Active
- MIC [2]: > 64 µg/mL
- MIC [3]: > 64 µg/mL
- Activity [4]: Active
- MIC [5]: > 64 µg/mL
- MIC [6]: > 64 µg/mL
- MIC [7]: > 64 µg/mL
- MIC [8]: > 64 µg/mL
- MHC [9]: > 1000 µg/mL
- Activity [10]: inactive
- MIC [11]: > 64 µg/mL
- MIC [12]: > 64 µg/mL
- MIC [13]: > 64 µg/mL
- MIC [14]: > 16 µg/mL
- MIC [15]: > 64 µg/mL
- MIC [16]: > 64 µg/mL
- MIC [17]: > 64 µg/mL
- MIC [18]: > 64 µg/mL
- Activity [19]: inactive

SMILES: CC[C@H](C)[C@H](NC(=O)[C@H](CCCNC(=N)N)NC(=O)[C@H](CCCNC(=N)N)NC(=O)[C@@H]1CCCN1C(=O)[C@@H]1CCCN1C(=O)[C@H](CCCNC(=N)N)NC(=O)[C@@H]1CCCN1C(=O)[C@H](CCCNC(=N)N)NC(=O)[C@@H]1CCCN1C(=O)[C@@H](CC(C)C)NC(=O)[C@H](Cc1ccc(O)cc1)NC(=O)[C@@H]1CCCN1C(=O)[C@@H]1CCCN1C(=O)[C@H](CCCCN)NC(=O)[C@H](CC(=O)O)NC(=O)[C@@H](N)C(C)C)C(=O)N[C@@H](Cc1ccc(O)cc1)C(=O)N[C@@H](CC(N)=O)C(=O)N[C@@H](CCCNC(=N)N)C(N)=O (H-VDKPPY[dL]PRPRPPRRIYNR-NH2)
- MIC [20]: > 32 µg/mL
- MIC [2]: > 64 µg/mL
- MIC [3]: > 32 µg/mL
- MIC [21]: > 16 µg/mL
- MIC [5]: > 64 µg/mL
- MIC [22]: > 64 µg/mL
- MIC [6]: > 64 µg/mL
- MIC [23]: > 64 µg/mL
- MIC [7]: > 64 µg/mL
- MIC [8]: > 64 µg/mL
- MHC [9]: > 1000 µg/mL
- Activity [10]: inactive
- MIC [11]: > 64 µg/mL
- MIC [24]: > 32 µg/mL
- MIC [25]: > 32 µg/mL
- MIC [12]: > 32 µg/mL
- MIC [13]: > 32 µg/mL
- MIC [14]: > 16 µg/mL
- MIC [15]: > 64 µg/mL
- MIC [26]: > 16 µg/mL
- MIC [16]: > 64 µg/mL
- MIC [17]: > 64 µg/mL
- MIC [18]: > 64 µg/mL
- MIC [27]: > 64 µg/mL
- MIC [28]: > 64 µg/mL

SMILES: CC[C@@H](C)[C@@H](NC(=O)[C@@H](CCCNC(=N)N)NC(=O)[C@@H](CCCNC(=N)N)NC(=O)[C@H]1CCCN1C(=O)[C@H]1CCCN1C(=O)[C@@H](CCCNC(=N)N)NC(=O)[C@H]1CCCN1C(=O)[C@@H](CCCNC(=N)N)NC(=O)[C@H]1CCCN1C(=O)[C@@H](CC(C)C)NC(=O)[C@@H](Cc1ccc(O)cc1)NC(=O)[C@H]1CCCN1C(=O)[C@H]1CCCN1C(=O)[C@@H](CCCCN)NC(=O)[C@@H](CC(=O)O)NC(=O)[C@H](N)C(C)C)C(=O)N[C@H](Cc1ccc(O)cc1)C(=O)N[C@H](CC(N)=O)C(=O)N[C@H](CCCNC(=N)N)C(N)=O (H-[dV][dD][dK][dP][dP][dY][dL][dP][dR][dP][dR][dP][dP][dR][dR][dI][dY][dN][dR]-NH2)
- MIC [2]: > 64 µg/mL
- MIC [3]: > 64 µg/mL
- MIC [5]: > 64 µg/mL
- MIC [23]: > 64 µg/mL
- MIC [7]: > 64 µg/mL
- MIC [8]: > 64 µg/mL
- MHC [9]: > 1000 µg/mL
- Activity [10]: inactive
- MIC [12]: > 64 µg/mL
- MIC [13]: > 64 µg/mL
- MIC [14]: > 16 µg/mL
- MIC [15]: > 64 µg/mL
- MIC [16]: > 64 µg/mL
- MIC [17]: > 64 µg/mL
- MIC [18]: > 64 µg/mL
- MIC [27]: > 64 µg/mL
- Activity [19]: inactive

SMILES: CC(C)CCCCC(=O)N[C@@H](CCN)C(=O)N[C@H](C(=O)N[C@@H](CCN)C(=O)N[C@H]1CCNC(=O)[C@H]([C@@H](C)O)NC(=O)[C@H](CCN)NC(=O)[C@H](CCN)NC(=O)[C@H](CC(C)C)NC(=O)[C@@H](Cc2ccccc2)NC(=O)[C@H](CCN)NC1=O)[C@@H](C)O.CC[C@H](C)CCCCC(=O)N[C@@H](CCN)C(=O)N[C@H](C(=O)N[C@@H](CCN)C(=O)N[C@H]1CCNC(=O)[C@H]([C@@H](C)O)NC(=O)[C@H](CCN)NC(=O)[C@H](CCN)NC(=O)[C@H](CC(C)C)NC(=O)[C@@H](Cc2ccccc2)NC(=O)[C@H](CCN)NC1=O)[C@@H](C)O (X1-[Dab]T[Dab][Dab][Dab][dF]L[Dab][Dab]T; lactam 4-C)
- MIC [20]: 2 µg/mL
- MIC [2]: > 64 µg/mL
- MIC [29]: 1 µg/mL
- MIC [3]: 2 µg/mL
- MIC [21]: 0.5 µg/mL
- MIC [5]: > 16 µg/mL
- MIC [30]: 1 µg/mL
- MIC [22]: 2 µg/mL
- MIC [6]: 1 µg/mL
- MIC [23]: 0.25 µg/mL
- MIC [7]: 4 µg/mL
- MIC [8]: 16 µg/mL
- MIC [11]: 16 µg/mL
- MIC [24]: 1 µg/mL
- MIC [25]: 1 µg/mL
- MIC [12]: 2 µg/mL
- MIC [13]: > 0.5 µg/mL
- MIC [14]: 1 µg/mL
- MIC [15]: 1 µg/mL
- MIC [26]: 1 µg/mL
- MIC [16]: 2 µg/mL
- MIC [17]: 0.5 µg/mL
- MIC [18]: 0.5 µg/mL
- MIC [31]: 0.2 µg/mL
- MIC [27]: 8 µg/mL
- MIC [28]: 0.25 µg/mL
